{"source": "paper PMC4750079", "about": "“Tackling amyloidogenesis in Alzheimer’s disease with A2V variants of Amyloid-β” (Scientific Reports, 2016)", "key": {"APPswe/PS1dE9 mice [1]": {"system": "APPswe/PS1dE9 mice", "assay": "Treatment of APPswe/PS1dE9 mice", "type": "in vivo, mouse", "details": "for amyloid burden (plaque count, area fraction): 4G8 immunohistochemistry", "description": "Heterozygous four-month-old female APPswe/PS1dE9 transgenic mice were used in this study. These mice express human APP carrying the Swedish mutation together with human presenilin 1 (PS1) carrying the pathogenic dE9 mutation. Animals were divided in 2 experimental groups (n = 10 each), treated i.p. once a week with saline solution or Aβ1-6A2VTAT(D) and culled 2.5 (intermediate time) and 5 months (final time) after treatment. In both mouse transgenic lines, the brain was removed and dissected into 2 hemibrains by midsagittal dissection. One half was immediately stored at […] for biochemical assays, the other immediately immersed in formalin (10%) overnight for immunohistochemical studies.\nThe Novel Object Recognition test (NOR) was used to examine the cognitive performance of animal models involved in preclinical studies, following well consolidated protocols. The results of the NOR were expressed by using:\n- Discrimination index (time exploring novel object - time exploring familiar object)/(time exploring novel object + time exploring familiar object).\n- Recognition index (RI): time exploring novel object/(time exploring novel object + time exploring familiar object) %.\n(§1) The left hemisphere of each brain was homogenized in 7 volumes of 10 mM Tris-HCl, pH 7.4, added with cOmplete Mini Protease Inhibitors cocktail (Roche), sonicated for 1 min using an ultrasonic homogenizer (SONOPULS) and centrifuged at 100,000 xg for 1 h at 4 °C. The supernatant was saved as the soluble fraction; the pellet was extracted in 70% formic acid and neutralized with 20 volumes of 1 M Tris (insoluble fraction).\n(§2) Aβ40, Aβ42 and aggregated Aβ were measured in both soluble and insoluble fractions by ELISA (Invitrogen). Each experiment was performed in triplicate. The analysis of APP processing followed the protocol described above. After centrifugation, the supernatant was collected as the SDS-soluble fraction, which was analyzed by western blot with the A8717 antibody (Sigma). Signal intensity of the bands was measured by Quantity One (BioRad).\n(§3) Coronal slices of the right hemibrain were embedded in paraffin and cut (7μm); sections were de-waxed in xylene and hydrated through serial alcohols to water. After formic acid (80%) pre-treatment, sections were incubated overnight with anti-Aβ antibody (4G8, 1:4000; Covance). The primary antibody signal was detected with a biotinylated secondary antibody followed by horseradish streptavidin peroxidase and visualized with DAB. Amyloid deposition was quantified in mouse brain using Aβ immunostaining (4G8) and the staining intensity was evaluated semiquantitatively using a scale range from 0 to 5 by light microscopy. The assessment was conducted in two adjacent sections of the same brain area[49]. A parallel quantification of the Aβ plaque load was performed using image analysis software (NIS-elements-Nikon)[50][51][52]."}, "[2]": {"system": "Aβ1-42WT toxicity in SH-SY5Y cells", "assay": "Inhibition of the toxicity induced by Aβ1-42WT in SH-SY5Y cell cultures (MTT test)", "type": "cell-based, human", "details": "differentiated SH-SY5Y, co-incubated with Aβ1-42WT, 24 h", "procedure": "Figure 2 Analysis of the effects of Aβ1-6WT(D), Aβ1-6A2V(D) and Aβ1-6A2VTAT(D) on neurotoxicity in cell models. SH-SY5Y cells were differentiated with 10 μM retinoic acid. After 6 days the proper peptide was added to culture medium and cell viability was assessed after 24 h by MTT test. […] Conversely, Aβ1-42WT reduces cell viability by 35%. * Significance vs non-treated cells. (C,D) Both Aβ1-6WT(D) and Aβ1-6A2V(D) are able to counteract the toxic effect of Aβ1-42WT. […] Comparison of cell viability was performed by Student t-test.\nToxicity studies with Aβ1-6WT(D), Aβ1-6A2V(D) or Aβ1-6A2VTAT(D) and the short peptides’ ability to inhibit the toxicity induced by Aβ1-42WT in SH-SY5Y cell cultures were analyzed following previously described protocols. Each experiment was performed in triplicate; the data provided were obtained as the mean of three independent assays."}, "APPswe/PS1dE9 mice [3]": {"system": "APPswe/PS1dE9 mice", "assay": "Serum IgG against Aβ peptides after chronic treatment (ELISA)", "type": "in vivo, mouse", "details": "once a week for 5 months, n = 9", "procedure": "Figure 8 Serum levels of IgG against Aβ peptides after chronic treatment with Aβ1-6A2VTAT(D). To verify whether Aβ1-6A2VTAT(D) administration once a week for 5 months was associated with an immune response, we collected blood from mice before (T0) and at the end of the treatment (T2). Sera from saline (n = 8) and Aβ1-6A2VTAT(D) (n = 9) treated mice were tested induplicate using ELISA for the presence of IgG against Aβ1-6A2VTAT(D) (A), the full-length Aβ1-42 (B), Aβ1-6A2V (C) and TAT(D) (D).\nSera were collected from mice before (T0) and at the end of the treatment (5 months), and tested using ELISA for the presence of IgG against Aβ1-6A2VTAT(D), the full-length Aβ1-42, Aβ1-6A2V(D) and TAT(D) following previously described protocols for antigen-specific mouse IgG detection, except blocking buffer that was PBS 3% milk. Anti-Aβ1-42 IgG antibodies from 6E10 IgG clone (Covance), and sera from mice immunized with Aβ1-6A2VTAT(D) or with Aβ1-6A2V emulsified in Complete Freund’s adjuvant were used as positive controls."}, "huAPPSwe/moAPP0/0 mice": {"system": "huAPPSwe/moAPP0/0 mice", "assay": "Pilot preclinical study in huAPPSwe/moAPP0/0 mice", "type": "in vivo, mouse", "procedure": "Transgenic APP23 mice expressing the Swedish double mutation in the human APP gene[46] and knock-out for endogenous APP (huAPP^Swe/moAPP^0/0) were generated in our lab by crossing APP23 mice with APP^0/0 animals. Mice (n = 6) were treated intraperitoneally (i.p.) every day for 21 days with Aβ1-6A2VTAT(D) (10 mg/kg) or saline solution and culled 24 h after the last treatment.\nas §1, §2, §3"}, "[4]": {"details": "i.p. 10 mg/kg once a week for 2.5 months, vs saline, ELISA"}, "[5]": {"details": "i.p. 10 mg/kg once a week for 5 months, vs saline"}, "[6]": {"details": "i.p. daily for 21 days, vs saline, ELISA"}}, "note": "Where a SMILES comes first, the peptide text is derived from it. [ ]: non-standard residue; d: D form.", "data": [{"smiles": "CC(C)[C@@H](NC(=O)[C@H](N)CC(=O)O)C(=O)N[C@H](CCC(=O)O)C(=O)N[C@H](Cc1ccccc1)C(=O)N[C@H](CCCNC(=N)N)C(=O)N[C@H](Cc1c[nH]cn1)C(=O)NCC(=O)NCC(=O)NCC(=O)NCC(=O)NCC(=O)N[C@H](CCCNC(=N)N)C(=O)N[C@H](CCCCN)C(=O)N[C@H](CCCCN)C(=O)N[C@H](CCCNC(=N)N)C(=O)N[C@H](CCCNC(=N)N)C(=O)N[C@H](CCC(N)=O)C(=O)N[C@H](CCCNC(=N)N)C(=O)N[C@H](CCCNC(=N)N)C(=O)N[C@H](CCCNC(=N)N)C(=O)O", "note": "[Aβ1-6A2VTAT(D)] (H-[dD][dV][dE][dF][dR][dH]GGGGG[dR][dK][dK][dR][dR][dQ][dR][dR][dR]-OH; N-terminus assumed)", "values": [{"measurement": "effects on APP processing (C99:C83 ratio), short-term", "setting": "APPswe/PS1dE9 mice [1]; after 2.5 months of treatment, western blot", "value": "not observed after short-term treatment schedules"}, {"measurement": "side effect on brain (neuropathologic studies)", "setting": "APPswe/PS1dE9 mice [1]; chronic treatment, data not shown", "value": "did not result in any evident side effect on brain"}, {"measurement": "Novel Object Recognition test scores", "setting": "APPswe/PS1dE9 mice [1]; i.p. 10 mg/kg once a week for 2.5 months", "value": "small, albeit not statistically significant, improvement"}, {"measurement": "amyloid burden (plaque count, area fraction)", "setting": "APPswe/PS1dE9 mice [1]; i.p. 10 mg/kg once a week for 2.5 months, vs saline", "value": "reduction of amyloid burden"}, {"measurement": "brain Aβ40", "setting": "APPswe/PS1dE9 mice [1]; [4]", "value": "not changed compared to controls"}, {"measurement": "brain Aβ42 in the insoluble fraction", "setting": "APPswe/PS1dE9 mice [1]; [4]", "value": "concomitant decrease in the insoluble fraction"}, {"measurement": "brain Aβ42 in the soluble fraction", "setting": "APPswe/PS1dE9 mice [1]; [4]", "value": "increase of Aβ42 in the soluble fraction"}, {"measurement": "brain aggregated Aβ, soluble and insoluble fraction", "setting": "APPswe/PS1dE9 mice [1]; [4]", "value": "reduced in both the compartments"}, {"measurement": "Novel Object Recognition test, recognition and discrimination indexes", "setting": "APPswe/PS1dE9 mice [1]; [5]", "value": "preserved cognitive function"}, {"measurement": "amyloid burden (plaque count, area fraction)", "setting": "APPswe/PS1dE9 mice [1]; [5]", "value": "unexpectedly increased"}, {"measurement": "brain Aβ levels (Aβ40, Aβ42, aggregated Aβ)", "setting": "APPswe/PS1dE9 mice [1]; i.p. 10 mg/kg once a week for 5 months, vs saline, ELISA", "value": "no significant difference compared to mice treated with saline solution"}, {"measurement": "C99:C83 ratio in brain (APP processing)", "setting": "APPswe/PS1dE9 mice [1]; i.p. every 7 days for 5 months, western blot densitometry", "value": "increase in the C99:C83 ratio"}, {"measurement": "effect on toxicity induced by Aβ1-42WT", "setting": "[2]", "value": "significant dose-dependent reduction of the toxicity"}, {"measurement": "serum IgG against Aβ1-6A2V peptide", "setting": "APPswe/PS1dE9 mice [3]", "value": "did not induce production of IgG"}, {"measurement": "serum IgG against Aβ1-6A2VTAT(D)", "setting": "APPswe/PS1dE9 mice [3]", "value": "not negligible levels"}, {"measurement": "serum IgG against TAT(D)", "setting": "APPswe/PS1dE9 mice [3]", "value": "3 out of 9 mice displayed slightly increased levels"}, {"measurement": "serum IgG against full-length Aβ", "setting": "APPswe/PS1dE9 mice [3]", "value": "not negligible levels"}, {"measurement": "intracerebral amyloid deposits", "setting": "huAPPSwe/moAPP0/0 mice; 13-month-old mice, i.p. once a day for 3 weeks, 4G8 immunohistochemistry, plaque count", "value": "decrease of intracerebral amyloid deposits"}, {"measurement": "effects on APP processing (C99:C83 ratio), short-term", "setting": "huAPPSwe/moAPP0/0 mice; after 3 weeks of treatment, western blot", "value": "not observed after short-term treatment schedules"}, {"measurement": "Aβ42 in the soluble fraction and Aβ40, Aβ42 and aggregated Aβ in the insoluble fraction", "setting": "huAPPSwe/moAPP0/0 mice; [6]", "value": "not significantly lower"}, {"measurement": "brain Aβ40 levels in the soluble fraction", "setting": "huAPPSwe/moAPP0/0 mice; [6]", "value": "reduction of Aβ40 levels in the soluble fraction"}, {"measurement": "brain aggregated Aβ (soluble fraction)", "setting": "huAPPSwe/moAPP0/0 mice; [6]", "value": "decrease in aggregated Aβ"}]}]}
